Laboratory results taken from patent publication US10059663B2, “Aromatic compound and use thereof” (Kyoto Pharmaceutical Industries, Ltd., priority 2013, dated 2018).

Columns and labels:
female F344 rats = experiment: Influence on bone density (ovariectomy, femur, DXA); assay type: in vivo, rat; conditions: at not more than 10 mg/kg; orally once per day, 6 or 7 days per week, 8 weeks; ovariectomized 12-week-old female F344 rats; femur by DXA
Text: 12-week-old female F344 rats (SLC) underwent ovariectomy or sham surgery under anesthesia. The test compound was suspended in 0.5% methylcellulose solution (Wako Pure Chemical Industries, Ltd. Cat. No. 133-14255) and orally administered once per day, 6 or 7 days per week, from two days after the surgery. A 0.5% methylcellulose solution was orally administered to a control group. At 8 weeks from the administration, they were euthanized by drawing the whole blood from the abdominal artery under anesthesia, and the left and right femurs were excised.
The soft tissues were removed from the excised femurs, and the bone density was measured by DXA device DCS-600R (Aloka Co., Ltd.). The bone density was evaluated for the whole femur as well as the whole divided into three equal portions of proximal end, diaphysis and distal end portion.

[1] = test system: Mouse bone marrow-derived mesenchymal cell line ST2 cells; experiment: Osteoblast differentiation test (alkaline phosphatase activity); assay type: cell-based; conditions: ST-2, 96 h, at 0.1 μg/mL, 4 days of culture, absorbance at 405 nm, DMSO control = 100%, read-out: alkaline phosphatase activity (increase rate in absorbance, control as 100%)
Description: Mouse bone marrow-derived mesenchymal cell line ST2 cells (source of supply: RIKEN) were seeded in α-MEM medium containing 10% fetal bovine serum (source of supply: GIBCO BRL Cat. No. 12000-022) in a 96 well plate at a cell density of 4×10^3 cells/0.1 mL/well, and cultured for 24 hr under the conditions of 37° C., 5% CO2. Then, each test compound was added at a final concentration of 0.001-10 μM, and the final concentration 0.1% (v/v) of DMSO was added to the control. After 4 days of culture, alkaline phosphatase (ALP) activity was measured by the following method.
The medium in the cultured 96 well plate was removed, the cells were washed with PBS buffer (KCl 0.2 g/L, KH2PO4 0.2 g/L, Na2HPO4.12H2O 2.9 g/L, NaCl 8 g/L) (100 μL/well), cell lysate (10 mM MgCl2, 2% (v/v) Triton X-100) (50 μL/well) was added, and the mixture was stirred at room temperature for 3 min. A substrate solution (50 mM diethanolamine (Wako Pure Chemical Industries, Ltd. Cat. No. 099-03112), 20 mM […] (Nacalai Tesque Cat. No. 25019-81)) (50 μL/well) was added, and the mixture was left standing at room temperature for 9 min. 1N NaOH 50 μL/well was added to discontinue the reaction, and the absorbance at 405 nm was measured by a microplate reader (Dainippon Pharmaceutical Co., Ltd.)
An increase rate (%) in the absorbance by the test compound was calculated based on the absorbance of the control as 100%, and the differentiation degree of the osteoblast was evaluated.

| Compound | bone density (female F344 rats) | activity at 0.1 µg/mL [1] [%] |
| --- | --- | --- |
| CC(O)c1ccc(C(N)=O)cc1Oc1ccc(OCCOC2CCOCC2)cc1 (centres unmarked) [Example 38, 4-(1-hydroxyethyl)-3-{4-[2-(tetrahydropyran-4-yloxy)ethoxy]phenoxy}benzamide] | significantly increased | ≥ 200 |
| C[C@@H](O)c1ccc(C(N)=O)cc1Oc1ccc(OCCOC2CCOCC2)cc1 [Example 43, (R)-4-(1-hydroxyethyl)-3-{4-[2-(tetrahydropyran-4-yloxy)ethoxy]phenoxy}benzamide] | significantly increased | ≥ 200 |
| CC(=O)c1ccc(C(N)=O)cc1Oc1ccc(OCCOC2CCOC2)cc1 (centres unmarked) [Example 67] | significantly increased | ≥ 200 |
| C[C@@H](O)c1ccc(C(N)=O)cc1Oc1ccc(OCCOC2CCOC2)cc1 (some centres unmarked) [Example 77] | significantly increased | ≥ 200 |
